Data reported in patent US7314755B2, “Preservation of eukaryotic cells using reversible pore formation” (Board of Supervisors of Louisiana State University and …, priority 2003, dated 2008).

Legend:
J774 cells [1] = assay: HPLC of nucleotides in extracts of cells loaded by ATP poration; type: cell-based, mouse; conditions: for intracellular nucleotides after loading (HPLC chromatogram): 20 min poration at 37° C. in DMEM pH 7.4 with 5 mM ATP, 5 mM AMP or 3.5 mM AMPS, FIG. 5
Experimental: Acid soluble extracts of cell suspensions were prepared by adding ice-cold 70% perchloric acid to a final concentration of 7% (w/v). Acid insoluble fractions were removed by centrifugation for 10 min at 10,000 g and 4° C. (Eppendorf Centrifuge 5417R, Fischer Scientific, Pittsburgh, Pa.). Extracts were neutralized with ice-cold 5 M K2CO3, and were stored at −80° C. until analyzed. The potassium perchlorate precipitate was removed by centrifugation as above. Analyses were performed using a Dionex HPLC system, including a GP 50 gradient pump, an AS 50 auto-sampler and an AS 50 thermal compartment (Dionex, Sunnyvale, Calif.). Aliquots of the supernatant were applied to a 4.6 mm×25 cm reverse-phase column (Synergy 4M Hydro RP 80A, Phenomenex, Torrance, Calif.),and eluted isocratically for 15 min with a starting buffer of 50 mM K2HPO4/KH2PO4, pH 6.2, containing 10 mM tetrabutyl-ammonium hydrogen sulfate (Sigma, St. Louise, Mo.) at a flow rate of 1 mL/min at 30° C. Then a linear gradient from 0% to 25% acetonitrile was applied over 40 min. Absorbance of the effluent was monitored with a PDA-100 photodiode array detector (Dionex, Sunnyvale, Calif.) at wavelengths from λ=190 nm to λ=390 nm. Peaks were identified by comparison with retention times of standards, as well as by analyzing peak spectra between λ=190 nm and λ=390 nm from a recorded 3D-field with Chromeleon™ software (Dionex, Sunnyvale, Calif.). Concentrations of nucleotides were determined from a measurement of peak area at λ=260 nm. Calibration curves were linear over the range assayed.
During poration, the cells were exposed to 5 mM AMP, or to 3.5 mM AMPS. Cells were extracted with perchloric acid after incubation. FIG. 5(A) depicts an HPLC chromatogram of the extracted AMP-loaded cells, and FIG. 5(B) depicts an HPLC chromatogram of the extracted AMPS-loaded cells.
The experiment was otherwise conducted as described in Example 5 and illustrated in FIG. 5(B), except that cellular AMP-deaminase was inhibited by adding 35 μM coformycin to the medium.

J774 cells [2] = assay: Trehalose uptake with and without extracellular ATP; type: cell-based
Experimental: Cell extracts were assayed for trehalose concentrations by separating carbohydrate peaks on a Hamilton RCX10 column, and then analyzing using pulsed amperometric electrochemical detection with an ESA Coulochem cell. […] The white bars are results from treatment for 15 minutes at 37° C. The cross-hatched bars are results from treatment for 15 minutes at 37° C., followed by 2 hours at 0° C. […] Each bar in FIG. 7 represents the mean of several different measurements. Although leaving the pores open for the longer periods of time at 37° C. can lead to cell death, the pores may be left open for longer periods at lower temperatures, while still leaving the cells viable and still allowing higher uptake of trehalose. At least 40% of the cells survived this treatment. We expect that the survivorship percentage will be improved by reducing the time the cells are held at 37° C. prior to chilling; future experiments will be done along these lines.

[3] = test system: AMP-activated protein kinase; conditions: cited from earlier work
J774 cells [4] = assay: AlamarBlue reduction, metabolic activity after ATP-dependent poration; type: cell-based, mouse
Experimental: J774.A1 mouse macrophage cells (ATCC, Manassas, Va.) were grown in 75 cm^2 cell culture flasks (Corning Incorporated, Corning, N.Y.) containing a standard culture medium of Dubelco's modified Eagle's medium without sodium pyruvate, supplemented with 10% fetal bovine serum, 100 units/mL penicillin, 100 μg/mL streptomycin, and 2 mM glutamine (“DMEM”) (all from Invitrogen, Grand Islands, N.Y.). The cells were maintained in a humidified atmosphere of 10% CO2 and 90% air at 37° C. The number of cells per flask was determined with a hemocytometer after removal with a cell scraper. […]
(§1) To assess the effect of ATP-induced permeability on cell viability, cells were grown in suspension after activation and subsequent closure of the P2X7 receptor, as described above. […] The number of viable cells at different times was determined by counting with a hemocytometer after diluting the sample 1:1 with a 0.4% Trypan blue solution (Sigma, St. Louise, Mo.). Alternatively, cell viability was assessed by monitoring the metabolic activity of the cells with AlamarBlue™ (BioSource International, Inc., Camarillo, Calif.). […] After adding 20,000 to 40,000 cells to each well, absorbances at λ=570 nm and λ=600 nm were measured with a micro plate reader (Spectramax Plus, Molecular Devices, Sunnyvale, Calif.) at different times. […]

J774 cells [5] = assay: Cell proliferation (cell counts) after ATP poration; type: cell-based, mouse; conditions: 15 min in Buffer 1+5 mM ATP, then spinner flask culture; FIG. 3
Experimental: To introduce compounds that were otherwise membrane-impermeable into the cytoplasm, J774.A1 cells were centrifuged at 175 g; and were then resuspended in Buffer 1 (50 mM K2HPO4/KH2PO4, pH 7.0, 365 mOsm, 250 mM trehalose, 1 mM MgSO4, 5 mM glucose, supplemented with Basal Medium Eagle Vitamin Solution and MEM Amino Acids Solution (Invitrogen, Grand Islands, N.Y.), with each of the last two components diluted to 1×). […] The cells were incubated for 15 min or 30 min at 37° C. in sealed microtubes.
as §1
In another series of experiments, we assessed the degree to which cell proliferation was suspended following poration. […]

J774 cells [6] = assay: Calorimetric heat dissipation after ATP poration; type: cell-based, mouse; conditions: Buffer 1+5 mM ATP, 37° C., FIG. 4
Experimental: Calorimetric measurements were conducted to assess the influence of various treatments on the total energy flow of J774 cells. A 2277 thermal activity monitor (LKB Produkter, Bromma, Sweden) was used to measure the heat dissipation of J774 cells in suspension. A 4 mL static ampule charged with 2.7 mL water was used as a reference vessel. Static and dynamic calibrations against water in both ampules were performed before the experimental heat signals were measured. For the experiments, the sample ampule was charged with 2.7 mL of cell suspension. An aliquot of the spinner flask culture was diluted with standard culture medium to give 130,000-250,000 cells in 2.7 mL, which was equilibrated with 10% CO2 and 90% air. All calorimetric measurements were performed at 37° C. A two-hour period was allowed for thermal equilibration after lowering the ampule into the calorimeter. The power signal was then recorded for the next 20 hours. The ongoing proliferation of the cells produced a continuous increase in the heat signal during the measurements.
In this series of experiments, we assessed the influence of ATP-induced poration on the heat dissipation of J774 cells. […] Each bar in FIG. 4 represents the mean±standard deviation for three to six separate measurements. The pair of asterisks for the bar at three hours indicates a statistically significant difference from control (P<0.05).

porated cells = assay: Early unpublished ATP-induced cell poration, cell survival; type: cell-based; conditions: ATP-induced poration as in literature, pores not closed early; usually within about 24 hours
Description: We observed that various dyes were indeed taken up by the cells as reported in the literature. But, at least in our experiments, we also invariably observed that the cells died soon thereafter.

J774 cells [7] = assay: Viability (trypan blue exclusion) after air-drying and rehydration; type: cell-based, mouse; conditions: 1 μM Trifluoperazine and 200 nM cyclosporin A together, in EB drying buffer and rehydration DMEM; versus control; FIG. 10

Compound: Nc1ncnc2c1ncn2[C@@H]1O[C@H](COP(O)(O)=S)[C@@H](O)[C@H]1O [AMPS, Adenosine 5′-phosphorothioate]
- intracellular AMPS with AMP-deaminase inhibited (J774 cells [1]; 3.5 mM AMPS, 5 mM ATP poration, 35 μM coformycin in medium, FIG. 6): substantial intracellular concentration of AMPS was observed
- intracellular nucleotides after loading (HPLC chromatogram) (J774 cells [1]): substantial production of a new compound
- uptake by the cells in the absence of ATP (J774 cells [2]; no pore opening, data not shown): only negligible concentrations
- Km value, fold lower than the natural effector 5′-AMP [3]: approximately 6 fold

Compound: Nc1ncnc2c1ncn2[C@@H]1O[C@H](COP(=O)(O)O)[C@@H](O)[C@H]1O [AMP]
- intracellular nucleotides after loading (HPLC chromatogram) (J774 cells [1]): an increase in ADP, and a substantial increase in IMP

Compound: Nc1ncnc2c1ncn2[C@@H]1O[C@H](COP(=O)(O)OP(=O)(O)OP(=O)(O)O)[C@@H](O)[C@H]1O [ATP, adenosine 5′-triphosphate]
- metabolic activity when poration time increased from 15 minutes to 30 minutes (J774 cells [4]; Buffer 1+5 mM ATP, measured 17 h and 41 h after treatment, FIG. 2): decreased substantially
- reduction of metabolic activity (AlamarBlue reduction) (J774 cells [4]; J774 cells, 40,000 per well, 15 min incubation, versus untreated control, FIG. 1): about 50%
- time for which cell proliferation stopped after poration (J774 cells [5]): approximately 20 hours
- heat dissipation 3 hours after poration (J774 cells [6]; versus control cells): significantly reduced
- heat signal 24 hours after poration (J774 cells [6]; versus untreated control cells): indistinguishable from that for the untreated control cells
- cells surviving extended pore opening at low temperature (J774 cells [2]; Buffer 1+5 mM ATP, 15 min at 37° C. followed by 2 hours at 0° C.): At least 40%
- fate of porated cells in early work (porated cells): invariably died

Compound: OC[C@H]1O[C@@H](n2cnc3c2N=CNC[C@H]3O)[C@H](O)[C@@H]1O [coformycin]
- effect on the metabolism of AMPS in the cells (J774 cells [1]; 35 μM coformycin in medium, AMPS-loaded porated cells, FIG. 6): inhibited the metabolism of AMPS in the cells

Compound: OC[C@H]1O[C@H](O[C@H]2O[C@H](CO)[C@@H](O)[C@H](O)[C@H]2O)[C@H](O)[C@@H](O)[C@@H]1O [trehalose]
- trehalose uptake in ATP-treated cells (J774 cells [2]; Buffer 1+5 mM ATP (250 mM trehalose), versus Buffer 1 without ATP, 15 min 37° C. or plus 2 h 0° C., FIG. 7): significantly higher trehalose uptake
- trehalose uptake in the absence of extracellular ATP (J774 cells [2]; Buffer 1 without ATP, FIG. 7): Some uptake of trehalose was observed

Compound: CN1CCN(CCCN2c3ccccc3Sc3ccc(C(F)(F)F)cc32)CC1 [trifluoperazine, Trifluoperazine]
- viability post-drying with apoptosis inhibitors (J774 cells [7]): higher viability post-drying

Compound: cyclosporin A
- viability post-drying with apoptosis inhibitors (J774 cells [7]): higher viability post-drying
